Data published in patent US3966957A, “Method for controlling emesis with N-(1-substituted-3-pyrrolidinyl)benzamides and thiobenzamides” (A. H. Robins Company, Incorporated, priority 1974, dated 1976).

How the values were obtained:
[1] = test system: apomorphine-induced emesis; test: Reduction of apomorphine-induced emesis in dogs, subcutaneous administration; format: in vivo, dog; conditions: for ED50: Canis lupus familiaris, sc, read-out: ED50, Anti-Emetic Effect of Subcutaneous Administration
Experimental: (§1) The anti-emetic properties of the compounds of Formulae I and II were established using a modification of the methods of Chen and Ensor, J. Pharmac. Exp. Ther. 98: 245-250 (1950) and of Leonard et al, J. Pharmac. Exp. Ther. 154, 339-345 (1966). Drug activity was assessed by its ability to reduce the frequency of apomorphine-induced emesis in dogs. The dogs were prescreened for fairly constant emetic responses to the subcutaneous administration of 0.1 mg./kg. of apomorphine hydrochloride, and those which vomited five or more times in the 40-minute period after apomorphine administration were selected for drug studies.
(§2) Groups of three dogs were used in preliminary tests and for the determinations of time of peak drug effect. Dose response curves were usually obtained using four drug-treated groups; each group contained at least three dogs. The dogs were fed approximately 17 hours prior to a test. Drugs were administered and at suitable intervals the dogs received 0.1 mg/kg of apormorphine hydrochloride subcutaneously. Frequency of emesis was determined during the next 40 minutes and emesis was counted as the actual expulsion of stomach contents.
In oral studies, drugs were administered in gelatin capsules (controls received an empty capsule). In the subcutaneous studies, drugs were administered in distilled water and/or polyethylene glycol-300.
Dogs were re-used at intervals of not less than one week. The ED50 is the dose which reduces the frequency of emesis of drug treated dogs to a value 50% below that of controls. Mean frequency of emesis for each drug treated group was compared with a mean control value derived by pooling the prior control emetic frequencies for all dogs used on that test day. The difference is expressed as a percentage decrease relative to controls. The per cent decrease in mean frequency of emesis for each drug-treated group (ordinate) was plotted against log dose (abscissa) on semi-log graph sheets. The ED50 was calculated by the method of Goldstein (Biostatistics, An Introductory Test; Pages 156-161; The MacMillan Co., New York, 1964).
Three dogs selected as described above were injected subcutaneously with 5.0 mg./kg. (3.12 mg./kg. expressed as free base) of the test drug 4-amino-N-(1-cyclohexyl-3-pyrrolidinyl)-N-methyl-benzamide cyclohexane-sulfamate from compound Example 4. One hour later apormorphine hydrochloride was administered in doses of 0.1 mg./kg. subcutaneously. Complete blockage of emesis (-100%) was observed over the 40-minute period following administration of apomorphine hydrochloride. […] (0.27 mg./kg. expressed as free base) was established for subcutaneous administration of the test drug.
Using the technique described in the foregoing general procedure and pharmacology in Example 1 for subcutaneous evaluation of test drugs against apomorphine induced emesis, results for additional compounds were obtained as shown in Table 4.

[2] = test system: apomorphine-induced emesis; test: Reduction of apomorphine-induced emesis in dogs, oral administration; format: in vivo, dog
Experimental: as §1
as §2, with “Drugs were administered and at suitable intervals the dogs received 0.1 mg/kg of apormorphine hydrochloride subcutaneously.” left out, “contents. […]” for “contents.”
Dogs were re-used at intervals of not less than one week. […] The difference is expressed as a percentage decrease relative to controls. […] The ED50 was calculated by the method of Goldstein (Biostatistics, An Introductory Test; Pages 156-161; The MacMillan Co., New York, 1964). […]

catalepsy = test: Catalepsy in rats (IP), modified Tedeschi procedure; format: in vivo, rat; conditions: IP administration in rats, as free base (Table 7)
Experimental: (§3) Drugs were blind tested with positive and negative controls. […] The modified procedure is as follows.
(§4) Groups of six rats are dosed (IP) with drugs in saline solution and tested hourly over a six hour period. A phenothiazine or non-phenothiazine reference standard is tested concomitantly as a positive control; negative controls receive only the saline vehicle. After administration the rats are positioned hourly with each foot on a No. 7 rubber stopper. A rat is considered cataleptic if it remains immobile on the stoppers for five seconds or longer at two or more consecutive hourly observation intervals.

[3] = as above; format: in vivo, rat; conditions: rat, in vivo; IP administration in rats; as free base (Table 7)
Experimental: as §3, §4

## CC(=O)Nc1ccc(C(=O)NC2CCN(C3CCCCC3)C2)cc1 (stereo not drawn) [Example 7, N-(1-Cyclohexyl-3-pyrrolidinyl)-4-acetamidobenzamide]
[1]
  ED50: 2.4 mg/kg

## O=C(NC1CCN(C2CCCCC2)C1)c1ccccc1 (stereo not drawn) [Example 24]
[2]; oral, dose level of 5 mg./kg. (Table 5 footnote a)
  reduction in emesis: 60%

## O=C(NC1CCN(c2ccccc2)C1)c1ccc([N+](=O)[O-])cc1 (stereo not drawn) [Example 3, N-(1-Phenyl-3-pyrrolidinyl)-4-nitrobenzamide]
[1]; dogs, subcutaneous, dose level of 5 mg./kg. (Table 4 footnote a)
  reduction in emesis: 50%

## O=C(NC1CCN(C2CCCCC2)C1)c1cc([N+](=O)[O-])cc([N+](=O)[O-])c1 (stereo not drawn) [Example 12]
[1]
  ED50: 0.15 mg/kg

## Nc1ccc(C(=O)NC2CCN(C3CCCCC3)C2)cc1 (stereo not drawn) [Example 23]
catalepsy; at 94.2 mg/kg
  Catalepsy (As Free Base), percent of rats cataleptic: 33%

## O=C(NC1CCN(C2CCCCC2)C1)c1ccc(F)cc1 (stereo not drawn) [Example 10]
[1]
  ED50: 0.15 mg/kg

## O=C(NC1CCN(C2CCCCC2)C1)c1ccc([N+](=O)[O-])cc1 (stereo not drawn) [Example 25]
[3]
  ED50: 28 mg/kg

## CN(C(=O)c1ccc([N+](=O)[O-])cc1)C1CCN(C2CCCCC2)C1 (stereo not drawn) [Example 27]
catalepsy
  Catalepsy (As Free Base), ED50 or other: highest dose without catatonia: no catatonia to 100
  lethal dose: 100 mg/kg

## CN(C(=O)c1ccc(N)cc1)C1CCN(C2CCCCC2)C1 (stereo not drawn) [Example 4, 4-Amino-N-(1-cyclohexyl-3-pyrrolidinyl)-N-methylbenzamide Cyclohexanesulfamate]
[1]; subcutaneous 5.0 mg./kg. (3.12 mg./kg. as free base), 1 h before apomorphine 0.1 mg./kg. s.c., 40-minute observation, dogs
  change in frequency of apomorphine-induced emesis: -100%
[2]; oral 2.5 mg./kg. in capsules, 2 h before apomorphine 0.1 mg./kg. s.c.
  change in apomorphine induced emesis: -95%
catalepsy
  Catalepsy (As Free Base), ED50 or other: highest dose without catatonia: no catatonia to 125
